Source: patent US20140288044A1, “COMPOSITIONS AND THERAPEUTIC USES OF IKK-RELATED KINASE EPSILON AND TANKBINDING KINASE 1 INHIBITORS” (Alzheimer's Institute of America, Inc., priority 2011, published 2014)
Like-named read-outs stand apart in the source and are kept apart here.

Target: T1, IKKε (Homo sapiens, UniProt Q14164)
T1 construct: His-tag (in-house Sf9 preparation) or GST-tag (purchased Invitrogen preparation); these are alternatives, not both on one protein; host or cells: Sf9 cells
T1 sequence (Q14164 1-716): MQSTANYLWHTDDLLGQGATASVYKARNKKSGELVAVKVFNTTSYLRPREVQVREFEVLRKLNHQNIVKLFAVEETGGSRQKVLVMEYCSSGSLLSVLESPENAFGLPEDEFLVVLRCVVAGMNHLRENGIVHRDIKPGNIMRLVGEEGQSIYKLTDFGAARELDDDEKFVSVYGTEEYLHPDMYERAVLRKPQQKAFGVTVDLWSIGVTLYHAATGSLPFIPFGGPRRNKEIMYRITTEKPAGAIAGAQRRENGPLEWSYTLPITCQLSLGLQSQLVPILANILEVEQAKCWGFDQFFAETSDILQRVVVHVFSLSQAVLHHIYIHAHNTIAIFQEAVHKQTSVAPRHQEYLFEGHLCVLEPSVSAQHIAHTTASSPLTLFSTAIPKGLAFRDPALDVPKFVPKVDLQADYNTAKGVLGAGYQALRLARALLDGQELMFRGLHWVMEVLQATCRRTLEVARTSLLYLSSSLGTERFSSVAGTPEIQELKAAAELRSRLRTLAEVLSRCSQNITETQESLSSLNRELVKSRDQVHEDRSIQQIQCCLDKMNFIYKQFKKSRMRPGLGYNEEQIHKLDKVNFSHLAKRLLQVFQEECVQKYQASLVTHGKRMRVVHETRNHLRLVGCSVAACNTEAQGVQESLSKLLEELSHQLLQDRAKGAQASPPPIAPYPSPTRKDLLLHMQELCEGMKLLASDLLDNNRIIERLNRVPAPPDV
Test: In-vitro IKKε kinase assay (radiolabelled ATP, filterplate)
Assay type: biochemical
Procedure: IKKε enzyme was produced as a His-tag fusion in Sf9 cells or purchased as a GST-tag fusion (Invitrogen, Carlsbad, Calif.). TBK1 enzyme was produced as a His-tag fusion in Sf9 cells. Kinase reactions were carried out in reaction buffer using myelin basic protein (Millipore, Ballerica, Mass.), casein or dephosphorylated casein (Sigma, St. Louis, Mo.) as substrate at an ATP concentration equal to twice the Km,ATP value for each enzyme, corresponding to 32 μM ATP for IKKε and 60 μM ATP for TBK1. Radiolabelled [γ^33]ATP (PerkinElmer, Waltham, Mass.) in the amount of […] (IKKe, “normal”) or 0.7 μCi (IKKε, “sensitized”) or 1.25 μCi (TBK1) was added to each assay. Final enzyme concentrations were 0.1 or 0.015 μg/ml (IKKε) and 0.1 or 0.02 μg/ml (TBK1) for the “normal” and “sensitized” assay, respectively, and “sensitized” assays were conducted using only dephosphorylated casein as substrate. Test compounds (or DMSO solvent as a control) were added prior to initiation of the reactions. Reactions were terminated after 30-45 minutes by adding 3% phosphoric acid. Terminated reactions were transferred to P-81 cellulose phosphate filterplates (Whatman, Inc., Piscataway, N.J.) and washed with 1% phosphoric acid on a vacuum apparatus. After air drying, scintillant (PerkinElmer, Waltham, Mass.) was added and the plates were read on a PerkinElmer TopCount NXT instrument. Counts were normalized to DMSO controls after background subtraction.

[1] = "sensitized" assay, read-out: IC50, inhibition of the kinase activity of IKKε
[2] = in-vitro IKKε kinase inhibition assays, given as 0.005 μM (5 nM), read-out: IKKε kinase inhibitory activity (IC50 value)

SMILES	IC50 [2] [nM]	IC50 [1] [nM]
CN(Cc1ccc(Nc2nccc(-c3ccc(OC4CCOCC4)c(C#N)c3)n2)cn1)C(=O)C(C)(C)O [Example Compound 56, N-{[5-({4-[3-Cyano-4-(tetrahydro-2H-pyran-4-yloxy)phenyl]pyrimidin-2-yl}amino)pyridin-2-yl]methyl}-2-hydroxy-N,2-dimethylpropanamide]	< 5	–
CC(O)c1ccc(Nc2nccc(-c3ccc(OC4CCOCC4)c(C#N)c3)n2)cn1 (stereo not shown) [Example Compound 61, 5-(2-{[6-(1-Hydroxyethyl)pyridin-3-yl]amino}pyrimidin-4-yl)-2-(tetrahydro-2H-pyran-4-yloxy)benzonitrile]	< 5	–
CC(=O)c1ccc(Nc2nccc(-c3ccc(OC4CCOCC4)c(C#N)c3)n2)cn1 [Example Compound 62, 5-{2-[(6-Acetylpyridin-3-yl)amino]pyrimidin-4-yl}-2-(tetrahydro-2H-pyran-4-yloxy)benzonitrile]	< 5	–
N#Cc1cc(-c2ccnc(Nc3ccnc(CO)c3)n2)ccc1OC1CCOCC1 [Example Compound 66, 5-(2-{[2-(Hydroxymethyl)pyridin-4-yl]amino}pyrimidin-4-yl)-2-(tetrahydro-2H-pyran-4-yloxy)benzonitrile]	< 5	–
N#Cc1cc(-c2ccnc(Nc3ccc(CNC(=O)N4CCOCC4)nc3)n2)ccc1OC1CCOCC1 [Example Compound 67, N-{[5-({4-[3-Cyano-4-(tetrahydro-2H-pyran-4-yloxy)phenyl]pyrimidin-2-yl}amino)pyridin-2-yl]methyl}morpholine-4-carboxamide]	< 5	–
CC(=O)NCc1ccc(Nc2nccc(-c3ccc(OC4CCOCC4)c(C#N)c3)n2)cn1 [Example Compound 68, N-{[5-({4-[3-Cyano-4-(tetrahydro-2H-pyran-4-yloxy)phenyl]pyrimidin-2-yl}amino)pyridin-2-yl]methyl}acetamide]	< 5	–
COC1CN(Cc2cc(Nc3nccc(-c4ccc(OC5CCOCC5)c(C#N)c4)n3)ccn2)C1 [Example Compound 69, 5-[2-({2-[(3-Methoxyazetidin-1-yl)methyl]pyridin-4-yl}amino)pyrimidin-4-yl]-2-(tetrahydro-2H-pyran-4-yloxy)benzonitrile]	< 5	–
CN(C)c1ccc(-c2ccc(Nc3nccc(-c4ccc(OC5CCOCC5)c(C#N)c4)n3)cn2)cn1 [Example Compound 81, 5-(2-{[6′-(Dimethylamino)-2,3′-bipyridin-5-yl]amino}pyrimidin-4-yl)-2-(tetrahydro-2H-pyran-4-yloxy)benzonitrile]	< 5	< 5
N#Cc1cc(-c2ccnc(Nc3cncc(N4CCOCC4)n3)n2)ccc1OC1CCOCC1 [Example Compound 89, 5-(2-{[6-(Morpholin-4-yl)pyrazin-2-yl]amino}pyrimidin-4-yl)-2-(tetrahydro-2H-pyran-4-yloxy)benzonitrile]	< 5	< 5
N#Cc1cc(-c2ccnc(Nc3ccc(C(=O)N4CCN(CCO)CC4)s3)n2)ccc1OC1CCOCC1 [Example Compound 95, 5-{2-[(5-{[4-(2-Hydroxyethyl)piperazin-1-yl]carbonyl}thiophen-2-yl)amino]pyrimidin-4-yl}-2-(tetrahydro-2H-pyran-4-yloxy)benzonitrile]	< 5	< 5

The next lines start with results.

IC50 [2] [nM]	SMILES	IC50 [1] [nM]
< 5	CCN(CC)c1ccc(Nc2nccc(-c3ccc(OC4CCOCC4)c(C#N)c3)n2)cn1 [Example Compound 9, 5-(2-{[6-(Diethylamino)pyridin-3-yl]amino}pyrimidin-4-yl)-2-(tetrahydro-2H-pyran-4-yloxy)benzonitrile]	< 5
< 5	CN(C)c1ccc(Nc2nccc(-c3ccc(OC4CCOCC4)c(C#N)c3)n2)cn1 [Example Compound 10, 5-(2-{[6-(Dimethylamino)pyridin-3-yl]amino}pyrimidin-4-yl)-2-(tetrahydro-2H-pyran-4-yloxy)benzonitrile]	< 5
< 5	N#Cc1cc(-c2ccnc(Nc3cncc(C(=O)NCCO)c3)n2)ccc1OC1CCOCC1 [Example Compound 13, 5-({4-[3-Cyano-4-(tetrahydro-2H-pyran-4-yloxy)phenyl]pyrimidin-2-yl}amino)-N-(2-hydroxyethyl)pyridine-3-carboxamide]	–
< 5	N#Cc1cc(-c2ccnc(Nc3cncc(CN4CCOCC4)c3)n2)ccc1OC1CCOCC1 [Example Compound 21, 5-(2-{[5-(Morpholin-4-ylmethyl)pyridin-3-yl]amino}pyrimidin-4-yl)-2-(tetrahydro-2H-pyran-4-yloxy)benzonitrile]	–
< 5	COCCNCc1cncc(Nc2nccc(-c3ccc(OC4CCOCC4)c(C#N)c3)n2)c1 [Example Compound 22, 5-{2-[(5-{[(2-Methoxyethyl)amino]methyl}pyridin-3-yl)amino]pyrimidin-4-yl}-2-(tetrahydro-2H-pyran-4-yloxy)benzonitrile]	–
< 5	COc1cncc(Nc2nccc(-c3ccc(OC4CCOCC4)c(C#N)c3)n2)c1 [Example Compound 27, 5-{2-[(5-Methoxypyridin-3-yl)amino]pyrimidin-4-yl}-2-(tetrahydro-2H-pyran-4-yloxy)benzonitrile]	< 5
< 5	N#Cc1cc(-c2ccnc(Nc3ccc(C(=O)N4CCC4)nc3)n2)ccc1OC1CCOCC1 [Example Compound 30, 5-(2-{[6-(Azetidin-1-ylcarbonyl)pyridin-3-yl]amino}pyrimidin-4-yl)-2-(tetrahydro-2H-pyran-4-yloxy)benzonitrile]	< 5
< 5	COC(=O)c1ccc(Nc2nccc(-c3ccc(OC4CCOCC4)c(C#N)c3)n2)cn1 [Example Compound 33, Methyl 5-({4-[3-cyano-4-(tetrahydro-2H-pyran-4-yloxy)phenyl]pyrimidin-2-yl}amino)pyridine-2-carboxylate]	< 5
< 5	COC(=O)c1cc(Nc2nccc(-c3ccc(OC4CCOCC4)c(C#N)c3)n2)ccn1 [Example Compound 36, Methyl 4-({4-[3-cyano-4-(tetrahydro-2H-pyran-4-yloxy)phenyl]pyrimidin-2-yl}amino)pyridine-2-carboxylate]	–
< 5	COCCNc1cc(Nc2nccc(-c3ccc(OC4CCOCC4)c(C#N)c3)n2)ccn1 [Example Compound 38, 5-[2-({2-[(2-Methoxyethyl)amino]pyridin-4-yl}amino)pyrimidin-4-yl]-2-(tetrahydro-2H-pyran-4-yloxy)benzonitrile]	–
< 5	COC1CCN(c2cc(Nc3nccc(-c4ccc(OC5CCOCC5)c(C#N)c4)n3)ccn2)C1 (stereo not shown) [Example Compound 39, 5-(2-{[2-(3-Methoxypyrrolidin-1-yl)pyridin-4-yl]amino}pyrimidin-4-yl)-2-(tetrahydro-2H-pyran-4-yloxy)benzonitrile]	< 5
< 5	N#Cc1cc(-c2ccnc(Nc3ccnc(N4CCC[C@H]4CO)c3)n2)ccc1OC1CCOCC1 [Example Compound 40, 5-[2-({2-[(2S)-2-(Hydroxymethyl)pyrrolidin-1-yl]pyridin-4-yl}amino)pyrimidin-4-yl]-2-(tetrahydro-2H-pyran-4-yloxy)benzonitrile]	< 5
< 5	N#Cc1cc(-c2ccnc(Nc3ccc(N4CC(O)C4)nc3)n2)ccc1OC1CCOCC1 [Example Compound 46, 5-(2-{[6-(3-Hydroxyazetidin-1-yl)pyridin-3-yl]amino}pyrimidin-4-yl)-2-(tetrahydro-2H-pyran-4-yloxy)benzonitrile]	–
< 5	CN(Cc1ccc(Nc2nccc(-c3ccc(OC4CCOCC4)c(C#N)c3)n2)cn1)S(C)(=O)=O [Example Compound 55, N-{[5-({4-[3-Cyano-4-(tetrahydro-2H-pyran-4-yloxy)phenyl]pyrimidin-2-yl}amino)pyridin-2-yl]methyl}-N-methylmethanesulfonamide]	–
